Where two headings read alike, the source gives them in different places.
Key:
[1] = biological target: MAGL (Homo sapiens (Human), UniProt Q99685); experiment: In vitro competitive activity-based protein profiling (gel-based, FP-Rh or HT-01 probe); format: biochemical
Description: In Vitro Competitive Activity-Based Protein Profiling.
Proteomes (human prefrontal cortex or cell membrane fractions) (50 μL, 1.0 mg/mL total protein concentration) were preincubated with varying concentrations of inhibitors at 37° C. After 30 min, FP-Rh or HT-01 (1.0 μL, 50 μM in DMSO) was added and the mixture was incubated for another 30 min at room temperature. Reactions were quenched with SDS loading buffer (15 μL—4×) and run on SDS-PAGE.

[2] = biological target: MAGL (Mus musculus (Mouse), UniProt O35678); experiment: In vitro competitive activity-based protein profiling, mouse brain proteome; format: biochemical; details: 1 uM; mouse
[3] = human PC3, read-out: MAGL % Inhibition at 1 μM (human PC3)
[4] = human PFC (prefrontal cortex), read-out: MAGL % Inhibition at 1 μM (human PFC)
[5] = human PC3, read-out: MAGL Human PC3 (IC50)
[6] = human PFC (prefrontal cortex), read-out: MAGL Human PFC (IC50)

MAGL (Homo sapiens (Human), UniProt Q99685), sequence (Q99685 whole entry): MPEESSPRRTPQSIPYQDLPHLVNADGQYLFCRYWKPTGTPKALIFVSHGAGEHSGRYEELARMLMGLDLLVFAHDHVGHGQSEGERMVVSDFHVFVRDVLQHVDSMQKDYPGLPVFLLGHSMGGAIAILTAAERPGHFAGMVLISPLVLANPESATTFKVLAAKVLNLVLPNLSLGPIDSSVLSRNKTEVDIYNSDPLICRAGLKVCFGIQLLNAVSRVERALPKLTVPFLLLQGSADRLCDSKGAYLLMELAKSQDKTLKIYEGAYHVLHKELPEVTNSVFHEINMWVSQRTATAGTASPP
MAGL (Mus musculus (Mouse), UniProt O35678), sequence (O35678 whole entry): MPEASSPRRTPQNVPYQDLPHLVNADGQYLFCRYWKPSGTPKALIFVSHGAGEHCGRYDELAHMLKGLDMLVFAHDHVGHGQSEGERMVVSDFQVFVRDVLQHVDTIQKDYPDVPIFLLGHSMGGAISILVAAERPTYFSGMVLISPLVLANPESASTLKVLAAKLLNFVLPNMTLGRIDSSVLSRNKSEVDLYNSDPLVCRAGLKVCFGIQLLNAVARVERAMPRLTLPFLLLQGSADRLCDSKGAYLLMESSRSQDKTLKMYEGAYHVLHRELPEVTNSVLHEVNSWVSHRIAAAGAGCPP

Row | Structure (SMILES) | inhibition at 1 µM [1, 3] [%] | inhibition at 1 µM [1, 4] [%] | inhibition at 1 µM [2] [%] | IC50 [1, 5] [nM] | IC50 [1, 6] [nM]
1 | O=C(OC(C(F)(F)F)C(F)(F)F)N1CCC2(CCCN2C(=O)c2cnn3ccccc23)CC1 [Example 146, 1,1,1,3,3,3-Hexafluoropropan-2-yl 1-(pyrazolo[1,5-a]pyridine-3-carbonyl)-1,8-diazaspiro[4.5] decane-8-carboxylate] | > 75 | > 75 | > 75 |  | 
2 | O=C(OC(C(F)(F)F)C(F)(F)F)N1CCC2(CCCN2C(=O)C2(c3ncc(C4CC4)cn3)CC2)CC1 [Example 33, 1,1,1,3,3,3-Hexafluoropropan-2-yl 1-(1-(5-cyclopropylpyrimidin-2-yl)cyclopropane-1-carbonyl)-1,8-diazaspiro[4.5]decane-8-carboxylate] | > 75 |  | > 75 |  | < 100
3 | O=C(OC(C(F)(F)F)C(F)(F)F)N1CCC2(CCCN2Cc2cnc(N3CCN(C4CC4)CC3)s2)CC1 [Example 132, 1,1,1,3,3,3-Hexafluoropropan-2-yl 1-((2-(4-cyclopropylpiperazin-1-yl)thiazol-5-yl)methyl)-1,8-diazaspiro[4.5] decane-8-carboxylate] |  | > 75 | > 75 | < 100 | 
4 | O=C(OC(C(F)(F)F)C(F)(F)F)N1CCC2(CCCN2C(=O)c2cn3ccncc3n2)CC1 [Example 159, 1,1,1,3,3,3-Hexafluoropropan-2-yl 1-(imidazo[1,2-a]pyrazine-2-carbonyl)-1,8-diazaspiro[4.5] decane-8-carboxylate] |  | > 75 | > 75 | < 100 | 
5 | O=C(OC(C(F)(F)F)C(F)(F)F)N1CCC2(CCCN2C(=O)c2ncccn2)CC1 [Example 12, 1,1,1,3,3,3-Hexafluoropropan-2-yl 1-(pyrimidine-2-carbonyl)-1,8-diazaspiro[4.5]decane-8-carboxylate] |  | < 25 | < 25 |  | 
6 | O=C(O)CN1CCn2cc(C(=O)N3CCCC34CCN(C(=O)OC(C(F)(F)F)C(F)(F)F)CC4)nc2C1 [Example 158, 2-(2-(8-(((1,1,1,3,3,3-Hexafluoropropan-2-yl)oxy)carbonyl)-1,8-diazaspiro[4.5]decane-1-carbonyl)-5,6-dihydroimidazo[1,2-a]pyrazin-7(8H)-yl) acetic acid] | > 75 | > 75 | 25 to 75 |  | 
7 | CN(C(=O)c1cn2c(n1)CN(C1CCC1)CC2)C1(C)CCN(C(=O)OC(C(F)(F)F)C(F)(F)F)CC1 [Example 23, 1,1,1,3,3,3-Hexafluoropropan-2-yl 4-(7-cyclobutyl-N-methyl-5,6,7,8-tetrahydroimidazo[1,2-a]pyrazine-2-carboxamido)-4-methylpiperidine-1-carboxylate] | > 75 | > 75 | > 75 | < 100 | 
8 | O=C(OC(C(F)(F)F)C(F)(F)F)N1CCC2(CCCN2Cc2cnc(N3CCNCC3)s2)CC1 [Example 4, 1,1,1,3,3,3-hexafluoropropan-2-yl 1-((2-(piperazin-1-yl)thiazol-5-yl)methyl)-1,8-diazaspiro[4.5]decane-8-carboxylate] |  | > 75 | > 75 | < 100 | 
9 | O=C(Cc1nc(C(F)(F)F)ccc1CN1CCCC12CCN(C(=O)OC(C(F)(F)F)C(F)(F)F)CC2)NS(=O)(=O)C1CC1 [Example 35, 1,1,1,3,3,3-Hexafluoropropan-2-yl 1-((2-(2-(cyclopropanesulfonamido)-2-oxoethyl)-6-(trifluoromethyl)pyridin-3-yl)methyl)-1,8-diazaspiro[4.5]decane-8-carboxylate] | > 75 |  |  |  | 
10 | O=C(OC(C(F)(F)F)C(F)(F)F)N1CCC2(CCCN2C(=O)c2cn3cc(C(F)(F)F)cc(Cl)c3n2)CC1 [Example 116, 1,1,1,3,3,3-Hexafluoropropan-2-yl 1-(8-chloro-6-(trifluoromethyl)imidazo[1,2-a]pyridine-2-carbonyl)-1,8-diazaspiro[4.5] decane-8-carboxylate] |  | > 75 | > 75 |  | 
11 | O=C(OC(C(F)(F)F)C(F)(F)F)N1CCC2(CCCN2C(=O)c2nc3n(n2)CCCN3)CC1 [Example 153, 1,1,1,3,3,3-Hexafluoropropan-2-yl 1-(4,5,6,7-tetrahydro-[1,2,4]triazolo[1,5-a]pyrimidine-2-carbonyl)-1,8-diazaspiro[4.5]decane-8-carboxylate] |  |  |  | < 100 | 
12 | O=C(OC(C(F)(F)F)C(F)(F)F)N1CCC2(CCCN2C(=O)C(F)(F)c2ncccn2)CC1 [Example 32, 1,1,1,3,3,3-Hexafluoropropan-2-yl 1-(2,2-difluoro-2-(pyrimidin-2-yl)acetyl)-1,8-diazaspiro[4.5]decane-8-carboxylate] | > 75 | > 75 |  | < 100 | 
13 | O=C(OC(C(F)(F)F)C(F)(F)F)N1CCC2(CCN(Cc3cccnn3)C2)CC1 [Example 9, 1,1,1,3,3,3-Hexafluoropropan-2-yl 2-(pyridazin-3-ylmethyl)-2,8-diazaspiro[4.5]decane-8-carboxylate] |  | > 75 |  |  | 
14 | O=C(OC(C(F)(F)F)C(F)(F)F)N1CCC2(CCN(Cc3ccnnc3)C2)CC1 [Example 106, 1,1,1,3,3,3-Hexafluoropropan-2-yl 2-(pyridazin-4-ylmethyl)-2,8-diazaspiro [4.5]decane-8-carboxylate] |  | > 75 |  |  | 
15 | O=C(OC(C(F)(F)F)C(F)(F)F)N1CCC2(CCCN2C(=O)c2cc3c(s2)CCNC3)CC1 [Example 152, 1,1,1,3,3,3-Hexafluoropropan-2-yl 1-(4,5,6,7-tetrahydrothieno[3,2-c]pyridine-2-carbonyl)-1,8-diazaspiro[4.5] decane-8-carboxylate] |  |  |  | < 100 | 
16 | O=C(OC(C(F)(F)F)C(F)(F)F)N1CCC2(CCCN2C(=O)c2cc3ccc(F)cc3s2)CC1 [Example 103, 1,1,1,3,3,3-Hexafluoropropan-2-yl 1-(6-fluorobenzo[b]thiophene-2-carbonyl)-1,8-diazaspiro[4.5] decane-8-carboxylate] |  |  | > 75 |  | 

The next lines start with the values.

Row | inhibition at 1 µM [1, 3] [%] | inhibition at 1 µM [1, 4] [%] | inhibition at 1 µM [2] [%] | IC50 [1, 5] [nM] | IC50 [1, 6] [nM] | Structure (SMILES)
17 | > 75 | > 75 | > 75 |  |  | O=C(OC(C(F)(F)F)C(F)(F)F)N1CCC2(CCCN2C(=O)c2cc3nc(C4CC4)cc(C(F)F)n3n2)CC1 [Example 167, 1.1,1,3,3,3-Hexafluoropropan-2-yl 1-(5-cyclopropyl-7-(difluoromethyl)pyrazolo[1,5-a]pyrimidine-2-carbonyl)-1,8-diazaspiro[4.5] decane-8-carboxylate]
18 | > 75 | > 75 | > 75 | < 100 |  | CC1(NC(=O)c2nnc3n2CCN(C2CCC2)C3)CCN(C(=O)OC(C(F)(F)F)C(F)(F)F)CC1 [Example 205, 1,1,1,3,3,3-Hexafluoropropan-2-yl 4-(7-cyclobutyl-5,6,7,8-tetrahydro-[1,2,4]triazolo[4,3-a]pyrazine-3-carboxamido)-4-methylpiperidine-1-carboxylate]
19 | > 75 | > 75 | > 75 |  | < 100 | COc1cnc(C(F)(F)C(=O)N(C)C2(C)CCN(C(=O)OC(C(F)(F)F)C(F)(F)F)CC2)cn1 [Example 199, 1,1,1,3,3,3-Hexafluoropropan-2-yl 4-(2,2-difluoro-2-(5-methoxypyrazin-2-yl)-N-methylacetamido)-4-methylpiperidine-1-carboxylate]
20 | > 75 | > 75 | > 75 |  |  | CCN(C(=O)c1cn2c(n1)CN(C1CC1)CC2)C1(C)CCN(C(=O)OC(C(F)(F)F)C(F)(F)F)CC1 [Example 178, 1,1,1,3,3,3-Hexafluoropropan-2-yl 4-(7-cyclopropyl-N-ethyl-5,6,7,8-tetrahydroimidazo [1,2-a]pyrazine-2-carboxamido)-4-methylpiperidine-1-carboxylate]
21 | > 75 |  | > 75 | < 100 |  | CC1(NC(=O)c2cn3c(n2)CN(C(=O)C2(F)CC2)CC3)CCN(C(=O)OC(C(F)(F)F)C(F)(F)F)CC1 [Example 192, 1,1,1,3,3,3-Hexafluoropropan-2-yl 4-(7-(1-fluorocyclopropane-1-carbonyl)-5,6,7,8-tetrahydroimidazo[1,2-a]pyrazine-2-carboxamido)-4-methylpiperidine-1-carboxylate]
22 | > 75 | > 75 | > 75 |  |  | CN(C(=O)C1(c2ncccn2)CC1)C1(C)CCN(C(=O)OC(C(F)(F)F)C(F)(F)F)CC1 [Example 177, 1,1,1,3,3,3-Hexafluoropropan-2-yl 4-methyl-4-(N-methyl-1-(pyrimidin-2-yl)cyclopropane-1-carboxamido) piperidine-1-carboxylate]
23 | > 75 | > 75 |  | < 100 |  | CC1(NC(=O)c2cn3c(n2)CN(C2CCC2)CC3)CCN(C(=O)OC(C(F)(F)F)C(F)(F)F)CC1 [Example 183, 1,1,1,3,3,3-Hexafluoropropan-2-yl 4-(7-cyclobutyl-5,6,7,8-tetrahydroimidazo[1,2-a]pyrazine-2-carboxamido)-4-methylpiperidine-1-carboxylate]
24 | > 75 | > 75 |  |  |  | O=C(OC(C(F)(F)F)C(F)(F)F)N1CCC2(CCCN2C(=O)C(F)(F)c2cnccn2)CC1 [Example 197, 1,1,1,3,3,3-Hexafluoropropan-2-yl 1-(2,2-difluoro-2-(pyrazin-2-yl)acetyl)-1,8-diazaspiro[4.5] decane-8-carboxylate]

Reference: patent US11142526B2, “Spirocycle compounds and methods of making and using same” (H. Lundbeck A/S, priority 2017, dated 2021)
